Measurements from US20090074750A1, “REGULATOR OF BASAL CELLULAR CALCIUM CONCENTRATION AND METHODS OF USE” (priority 2007, published 2009).

Tested on: HeLa cells
Experiment: YFP-Stim2 localization after thapsigargin ER Ca^2+ store depletion (confocal imaging)
Assay type: cell-based, human
Conditions: 1 uM thapsigargin
Protocol: FIG. 3. Stim2 translocates to ER-PM junctions following ER Ca^2+ depletion. (A-C) YFP-Stim2 was expressed (˜24 hour) in HeLa (A), HUVEC, (B), and HEK293T (C) cells and confocal images were taken before and 2 minutes after 1 uM thapsigargin addition. […] HeLa cells were transfected for two days with ORAI1 siRNA and transfected for 24 hours with YFP-Stim2. Cells used in the analysis expressed YFP at 7.5 to 15 fold above background. N=10 sites.
Confocal imaging was performed using a Zeiss spinning disk confocal. Cells were imaged in extracellar buffer as described in the Ca^2+ measurements section.
We employed the YFP tagged Stim2 construct to investigate its localization and activation mechanism. Cells with submaximal YFP-Stim2 expression were selected to minimize expression artifacts. […] We observed the same YFP-Stim2 puncta formation in HeLa, Huvec, and HEK293T cell lines (FIGS. 3A-C). We then compared Stim1 and Stim2 localization by co-transfection of CFP-Stim1 and YFP-Stim2 followed by thapsigargin-induced depletion of ER Ca^2+ stores. CFP-Stim1 and YFP-Stim2 were co-localized in the same puncta that have previously been characterized as ER-PM junction sites (FIG. 3D) (Liou et al., 2005, Wu et al., 2006). […]

C/C=C(/C)C(=O)O[C@H]1C(C)=C2[C@H]([C@@H]1OC(=O)CCCCCCC)[C@@](C)(OC(C)=O)C[C@H](OC(=O)CCC)[C@@]1(O)[C@H]2OC(=O)[C@@]1(C)O [thapsigargin]
YFP-Stim2 translocation to PM localized puncta: rapid translocation
